Patent US8546579B2, “Bicycloheteroaryl compounds as P2X7 modulators and uses thereof” (Evotec (US) Inc., priority 2006, dated 2013)

molecular target: T1, P2X7 receptor (Homo sapiens, UniProt Q99572); test: IL-1β release assay in differentiated THP-1 cells stimulated with BzATP (Example 9); type: cell-based; details: 0.1 μM compound; differentiated THP-1 cells, BzATP 250 uM; '*' class symbols; read-out: IL-1β % Inhib. (asterisk classes, 0.1 μM)
T1 construct: host or cells: THP-1 cells differentiated with LPS and IFN-γ
T1 sequence (Q99572 1-595): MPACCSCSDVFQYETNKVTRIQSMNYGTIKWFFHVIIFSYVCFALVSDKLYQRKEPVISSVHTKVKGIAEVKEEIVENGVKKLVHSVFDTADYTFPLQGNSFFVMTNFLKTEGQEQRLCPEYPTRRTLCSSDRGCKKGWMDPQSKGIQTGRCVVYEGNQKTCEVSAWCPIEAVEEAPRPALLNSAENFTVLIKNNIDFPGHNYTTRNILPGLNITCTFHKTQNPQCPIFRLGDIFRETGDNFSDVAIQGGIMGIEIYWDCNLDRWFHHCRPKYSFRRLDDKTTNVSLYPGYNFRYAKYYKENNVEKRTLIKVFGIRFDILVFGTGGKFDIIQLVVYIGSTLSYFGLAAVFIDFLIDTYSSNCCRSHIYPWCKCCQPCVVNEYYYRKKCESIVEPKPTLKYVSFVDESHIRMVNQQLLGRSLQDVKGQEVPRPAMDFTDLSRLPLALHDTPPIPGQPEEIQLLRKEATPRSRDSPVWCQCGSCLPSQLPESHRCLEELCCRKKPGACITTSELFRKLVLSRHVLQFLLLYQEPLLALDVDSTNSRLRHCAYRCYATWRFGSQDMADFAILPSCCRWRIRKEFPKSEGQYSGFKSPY
In short: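 THP-1 cells differentiated 16 h with LPS and IFN-γ (100 ng/mL each), re-primed 2 h with LPS, then compound-pretreated 30 min before 250 uM BzATP for 45 min. Supernatant IL-1β quantified by ELISA; background-adjusted percent inhibition fitted to four-parameter logistic for IC50.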

| inhibition at 0.1 µM | Structure (SMILES) |
| --- | --- |
| 0 to 25% | O=C(Nc1cccc2c(=O)n(CCN3CCOCC3)ccc12)c1cc(Cl)cc(Cl)c1 [Compound 1195] |
| 0 to 25% | COc1cc(OC)cc(C(=O)Nc2cccc3c(=O)n(CCN4CCOCC4)ccc23)c1 [Compound 1196] |
| 0 to 25% | Cc1cccc(C(=O)Nc2cccc3c(=O)n(CCN4CCOCC4)ccc23)c1 [Compound 1197] |

same assay, conditions: 0.1 μM compound; differentiated THP-1 cells, BzATP 250 uM; symbols * to ****; read-out: IL-1β % Inhib. (asterisk symbols: at 0.1 μM)

| inhibition at 0.1 µM | Structure (SMILES) |
| --- | --- |
| 0 to 25% | CCOc1ccc(C(=O)Nc2cccc3c(=O)n(CCN4CCOCC4)ccc23)cc1 [Compound 1198] |
| 0 to 25% | CC(C)(C)c1ccc(C(=O)Nc2cccc3c(=O)n(CCN4CCOCC4)ccc23)cc1 [Compound 1199] |
| 0 to 25% | COc1ccccc1CCC(=O)Nc1cccc2c(=O)n(CCN3CCOCC3)ccc12 [Compound 1201] |

same assay, conditions: 0.3 μM compound; differentiated THP-1 cells, BzATP 250 uM; '+' class symbols; read-out: IL-1β % Inhib. @ 0.3 μM

| inhibition at 0.3 µM | Structure (SMILES) |
| --- | --- |
| 0 to 25% | COc1ccc(C(=O)Nc2cccc3c(=O)n(CCN(C)C)ccc23)cc1C [Compound 1184] |
| 0 to 25% | Cc1ccc(CCC(=O)Nc2cccc3c(=O)n(CCN(C)C)ccc23)c(C)c1 [Compound 1185] |
| 51 to 75% | CN(C)CCn1ccc2c(NC(=O)CCc3cccc(Cl)c3)cccc2c1=O [Compound 1186] |
| 0 to 25% | CC(C)Cc1ccc(C(=O)Nc2cccc3c(=O)n(CCN(C)C)ccc23)cc1 [Compound 1187] |
| 0 to 25% | O=C(Nc1cccc2c(=O)n(CCN3CCOCC3)ccc12)c1ccccc1Cl [Compound 1188] |
| 0 to 25% | O=C(Nc1cccc2c(=O)n(CCN3CCOCC3)ccc12)c1ccc(Cl)cc1Cl [Compound 1189] |
| 0 to 25% | O=C(Nc1cccc2c(=O)n(CCN3CCOCC3)ccc12)c1cc(Cl)ccc1Cl [Compound 1190] |
| 0 to 25% | Cc1ccccc1C(=O)Nc1cccc2c(=O)n(CCN3CCOCC3)ccc12 [Compound 1191] |
| 26 to 50% | Cc1cccc(C(=O)Nc2cccc3c(=O)n(CCN4CCOCC4)ccc23)c1C [Compound 1192] |
| 0 to 25% | Cc1ccc(C(=O)Nc2cccc3c(=O)n(CCN4CCOCC4)ccc23)c(C)c1 [Compound 1193] |
| 0 to 25% | Cc1ccc(C)c(C(=O)Nc2cccc3c(=O)n(CCN4CCOCC4)ccc23)c1 [Compound 1194] |

Further lines, the compound ahead of its results:

| Structure (SMILES) | inhibition at 0.3 µM |
| --- | --- |
| COc1ccc(CCC(=O)Nc2cccc3c(=O)n(CCN(C)C)ccc23)cc1 [Compound 1150] | 0 to 25% |
| CN(C)CCn1ccc2c(NC(=O)c3cccc4ccccc34)cccc2c1=O [Compound 1151] | 0 to 25% |
| CN(C)CCn1ccc2c(NC(=O)Cc3cccc4ccccc34)cccc2c1=O [Compound 1152] | 0 to 25% |
| CN(C)CCn1ccc2c(NC(=O)c3ccc4ccccc4c3)cccc2c1=O [Compound 1153] | 0 to 25% |
| CN(C)CCn1ccc2c(NC(=O)Cc3ccccc3F)cccc2c1=O [Compound 1154] | 0 to 25% |
| CN(C)CCn1ccc2c(NC(=O)Cc3ccccc3Cl)cccc2c1=O [Compound 1155] | 0 to 25% |
| COc1ccc(OC)c(CC(=O)Nc2cccc3c(=O)n(CCN(C)C)ccc23)c1 [Compound 1156] | 0 to 25% |
| Cc1ccccc1CC(=O)Nc1cccc2c(=O)n(CCN(C)C)ccc12 [Compound 1157] | 0 to 25% |
| COc1ccc(CC(=O)Nc2cccc3c(=O)n(CCN(C)C)ccc23)cc1OC [Compound 1158] | 0 to 25% |
| Cc1cccc(CC(=O)Nc2cccc3c(=O)n(CCN(C)C)ccc23)c1 [Compound 1159] | 0 to 25% |
| CCOc1ccc(CC(=O)Nc2cccc3c(=O)n(CCN(C)C)ccc23)cc1 [Compound 1160] | 0 to 25% |
| CN(C)CCn1ccc2c(NC(=O)CCCc3ccccc3)cccc2c1=O [Compound 1161] | 0 to 25% |
| CN(C)CCn1ccc2c(NC(=O)c3cc4ccccc4o3)cccc2c1=O [Compound 1162] | 0 to 25% |
| CN(C)CCn1ccc2c(NC(=O)Cc3ccc4c(c3)OCO4)cccc2c1=O [Compound 1163] | 0 to 25% |
| COc1cc(CC(=O)Nc2cccc3c(=O)n(CCN(C)C)ccc23)cc(OC)c1 [Compound 1164] | 0 to 25% |
| COc1c(C)cc(C(=O)Nc2cccc3c(=O)n(CCN(C)C)ccc23)cc1C [Compound 1165] | 0 to 25% |
| Cc1cc(Cl)ccc1C(=O)Nc1cccc2c(=O)n(CCN(C)C)ccc12 [Compound 1166] | 0 to 25% |

| Structure (SMILES) | inhibition at 0.3 µM |
| --- | --- |
| CN(C)CCn1ccc2c(NC(=O)CC3CC4CC[C@H]3C4)cccc2c1=O (stereo partly shown) [Compound 1167] | 26 to 50% |
| CN(C)CCn1ccc2c(NC(=O)[C@@]34C[C@@H]5C[C@@H](C[C@@H]3C5)C4)cccc2c1=O [Compound 1168] | 0 to 25% |
| CN(C)CCn1ccc2c(NC(=O)c3cccc4c3OCCO4)cccc2c1=O [Compound 1169] | 0 to 25% |
| CN(C)CCn1ccc2c(NC(=O)c3ccc4c(c3)OCCCO4)cccc2c1=O [Compound 1170] | 0 to 25% |
| CN(C)CCn1ccc2c(NC(=O)Cc3csc4ccccc34)cccc2c1=O [Compound 1171] | 0 to 25% |
| Cc1c(Cl)cccc1C(=O)Nc1cccc2c(=O)n(CCN(C)C)ccc12 [Compound 1172] | 0 to 25% |
| Cc1cc(C)cc(CC(=O)Nc2cccc3c(=O)n(CCN(C)C)ccc23)c1 [Compound 1173] | 0 to 25% |
| Cc1cc(C(=O)Nc2cccc3c(=O)n(CCN(C)C)ccc23)ccc1F [Compound 1175] | 0 to 25% |
| CN(C)CCn1ccc2c(NC(=O)CCc3ccc(Cl)cc3)cccc2c1=O [Compound 1176] | 0 to 25% |
| CCOc1ccccc1CC(=O)Nc1cccc2c(=O)n(CCN(C)C)ccc12 [Compound 1177] | 0 to 25% |
| COc1ccc(CC(=O)Nc2cccc3c(=O)n(CCN(C)C)ccc23)cc1C [Compound 1178] | 0 to 25% |
| Cc1ccc(Cl)c(C(=O)Nc2cccc3c(=O)n(CCN(C)C)ccc23)c1 [Compound 1179] | 0 to 25% |
| Cc1ccc(Cl)cc1C(=O)Nc1cccc2c(=O)n(CCN(C)C)ccc12 [Compound 1180] | 0 to 25% |
| Cc1cccc(CCC(=O)Nc2cccc3c(=O)n(CCN(C)C)ccc23)c1 [Compound 1181] | 0 to 25% |
| CN(C)CCn1ccc2c(NC(=O)c3cc4cc(Cl)ccc4o3)cccc2c1=O [Compound 1182] | 0 to 25% |
| Cc1cccc(C(=O)Nc2cccc3c(=O)n(CCN(C)C)ccc23)c1Cl [Compound 1183] | 0 to 25% |

same assay, conditions: 0.3 μM compound; differentiated THP-1 cells, BzATP 250 uM; symbols + to ++++; read-out: IL-1β % Inhib. @ 0.3 μM

| inhibition at 0.3 µM | Structure (SMILES) |
| --- | --- |
| 0 to 25% | CC(C(=O)Nc1cccc2c(=O)n(CCN3CCOCC3)ccc12)c1ccccc1 (stereo not shown) [Compound 1200] |
| 0 to 25% | COc1ccc(CCC(=O)Nc2cccc3c(=O)n(CCN4CCOCC4)ccc23)cc1 [Compound 1202] |
| 0 to 25% | O=C(Cc1cccc2ccccc12)Nc1cccc2c(=O)n(CCN3CCOCC3)ccc12 [Compound 1203] |
| 0 to 25% | O=C(Cc1ccccc1F)Nc1cccc2c(=O)n(CCN3CCOCC3)ccc12 [Compound 1204] |
| 0 to 25% | O=C(Cc1ccccc1Cl)Nc1cccc2c(=O)n(CCN3CCOCC3)ccc12 [Compound 1205] |
| 0 to 25% | COc1ccccc1CC(=O)Nc1cccc2c(=O)n(CCN3CCOCC3)ccc12 [Compound 1206] |
| 0 to 25% | COc1ccc(OC)c(CC(=O)Nc2cccc3c(=O)n(CCN4CCOCC4)ccc23)c1 [Compound 1207] |
| 0 to 25% | Cc1ccccc1CC(=O)Nc1cccc2c(=O)n(CCN3CCOCC3)ccc12 [Compound 1208] |
